In general, IC50 refers to the concentration that inhibits the measured activity by half. In general, EC50 refers to the concentration that produces a half-maximal response.

Drawing on US7468375B2 (Pfizer Inc., priority 2004, dated 2008), this text covers IC50 and EC50 for 16 compounds.

Each structure is given as a SMILES string. Where two headings read alike, the source gives them in different places.

Experiment [1] addresses T1, Full-length wild type HIV-1 integrase (SF1) (Human immunodeficiency virus type 1 group M subtype B, UniProt P04585).
T1 construct: made in house; host or cells: E. coli BL21 (DE3)
Nature of the experiment: Integrase strand-transfer scintillation proximity assay. Type of experiment: biochemical. Particulars: 50 min at 37° C., 246 nM integrase, 50 nM host DNA. Put shortly:
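Recombinant full-length wild-type HIV-1 integrase (aa 1-288), E. coli-expressed, tested on biotinylated pre-processed U5 LTR viral ds-DNA with CA overhang bound to streptavidin SPA beads. [3H]-thymidine-labelled host ds-DNA serves as target; strand transfer read by scintillation proximity. A 3′ di-deoxy viral DNA control checks non-specific binding.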
A general note: SPA uses beads or plates that emit light when radiolabelled molecules are held near them.

In experiment [2] the test system is RF strain of HIV-1 in CEM-SS cells. In words: HIV-1 cell protection assay (XTT dye reduction). It counts as cell-based. The following applies: Human immunodeficiency virus 1, CEM-SS, 144 h. The method in brief:
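CEM-SS cells infected with HIV-1 RF (moi 0.025–0.819) or mock-infected, 2×10^4 cells/well with half-log compound dilutions for six days. Viability by XTT/PMS reduction (4 h), absorbance 450 nm, as % of uninfected untreated cells. Therapeutic index = CC50/EC50.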
In general terms: Formazan colour is commonly taken as a measure of viable cells.

[3] abbreviates: strand transfer, read-out: IC50.
The mark [4] stands for this setting: HIV-1 RF, CEM-SS cells, XTT dye reduction, six days, read-out: EC50.

Regarding `CCN1CCCC1CNCc1cn(Cc2ccc(F)cc2F)c2cnc(C(=O)NOC)cc12` (centres unmarked) [Example 46, 1-(2,4-Difluorobenzyl)-3-({[(1-ethylpyrrolidin-2-yl)methyl]amino}methyl)-N-methoxy-1H-pyrrolo[2,3-c]pyridine-5-carboxamide], the IC50 in experiment [1] (setting [3]) came out at 912 nM. For the same compound, in experiment [2] (setting [4]), the EC50 was 130 nM.

Take `CONC(=O)c1cc2c(CN3CCN(C)CC3)cn(Cc3ccc(F)cc3F)c2cn1` [Example 37, 1-(2,4-Difluorobenzyl)-N-methoxy-3-[(4-methylpiperazin-1-yl)methyl]-1H-pyrrolo[2,3-c]pyridine-5-carboxamide]: the IC50 in experiment [1] (setting [3]) came to 528 nM. Further, the EC50 in experiment [2] (setting [4]) is 46 nM.

For the compound `CN(O)C(=O)c1cc2c(CN3CC[C@H]4CNC(=O)[C@H]4C3)cn(Cc3ccc(F)cc3F)c2cn1` [Example 113], the IC50 in experiment [1] (setting [3]) was determined as 40 nM. Besides, the EC50 in experiment [2] (setting [4]) stood at 437 nM.

With `CN1CCN(Cc2cn(Cc3ccc(F)cc3F)c3cnc(C(=O)N(C)O)cc23)CC1` [Example 13], the IC50 in experiment [1] (IC50, strand transfer) was found to be 695 nM. Also, the EC50 in experiment [2] (setting [4]) was determined as 220 nM.

On to `CN(O)C(=O)c1cc2c(COC3CCOCC3)cn(Cc3ccc(F)cc3)c2cn1` [Example 118, 1-(4-Fluorobenzyl)-N-hydroxy-N-methyl-3-[(tetrahydro-2H-pyran-4-yloxy)methyl]-1H-pyrrolo[2,3-c]pyridine-5-carboxamide], for which the IC50 in experiment [1] (setting [3]) was 57 nM. Besides, in experiment [2] (setting [4]), the EC50 is 313 nM.

Consider `Cc1ccc2c(c1)C(NCc1cn(Cc3ccc(F)cc3F)c3cnc(C(=O)NO)cc13)CCO2` (centres unmarked) [Example 98, 1-(2,4-difluorobenzyl)-N-hydroxy-3-{[(6-methyl-3,4-dihydro-2H-chromen-4-yl)amino]methyl}-1H-pyrrolo[2,3-c]pyridine-5-carboxamide], for which, in experiment [1] (setting [3]), the IC50 worked out at 256 nM. The EC50 in experiment [2] (setting [4]) came out at 100 nM.

With `O=C(NO)c1cc2ncn(CCC3CCCCC3)c2cn1` [Example 25, 3-(2-Cyclohexylethyl)-N-hydroxy-3-H-imidazo[4,5-c]pyridine-6-carboxamide], the IC50 in experiment [1] (setting [3]) amounted to 1720 nM. Moreover, the EC50 in experiment [2] (setting [4]) is 230 nM.

As for `NC(=O)CNCc1cn(Cc2ccc(F)cc2F)c2cnc(C(=O)NO)cc12` [Example 10, 3-{[(2-Amino-2-oxoethyl)amino]methyl}-1-(2,4-difluorobenzyl)-N-hydroxy-1H-pyrrolo[2,3-c]pyridine-5-carboxamide], the IC50 in experiment [1] (setting [3]) was determined as 84 nM. For the same compound, the EC50 in experiment [2] (setting [4]) stood at 18 nM.

Regarding `O=C(NO)c1cc2c(CN[C@H](CO)Cc3c[nH]c4ccccc34)cn(Cc3ccc(F)cc3F)c2cn1` [Example 77, 1-(2,4-Difluorobenzyl)-N-hydroxy-3-({[(1S)-2-hydroxy-1-(1H-indol-3-ylmethyl)ethyl]amino}methyl)-1H-pyrrolo[2,3-c]pyridine-5-carboxamide], in experiment [1] (setting [3]), the IC50 was 483 nM. Moreover, the 50% effective concentration (EC50) in experiment [2] (setting [4]) amounted to 360 nM.

Regarding `COCCOCc1cn(Cc2ccc(F)cc2F)c2cnc(C(=O)N(C)O)cc12` [Example 123, 1 (2,4-Difluorobenzyl)-N-hydroxy-3-[(2-methoxyethoxy)methyl]-N-methyl-1H-pyrrolo[2,3-c]pyridine-5-carboxamide], the IC50 in experiment [1] (setting [3]) was found to be 51 nM. Also, the EC50 in experiment [2] was determined as 519 nM.

Consider `CN1CCN(CCCNCc2cn(Cc3ccc(F)cc3F)c3cnc(C(=O)NO)cc23)CC1` [Example 52, 1-(2,4-Difluorobenzyl)-N-hydroxy-3-({[3-(4-methylpiperazin-1-yl)propyl]amino}methyl)-1H-pyrrolo[2,3-c]pyridine-5-carboxamide], for which the half-inhibitory concentration (IC50) in experiment [1] (setting [3]) was found to be 781 nM. Further, the EC50 in experiment [2] (setting [4]) is 260 nM.

As to `O=C(CC(NCc1cn(Cc2ccc(F)cc2F)c2cnc(C(=O)NO)cc12)C1CC1)NC1CC1` (centres unmarked) [Example 101, 3-({[1-Cyclopropyl-3-(cyclopropylamino)-3-oxopropyl]amino}methyl)-1-(2,4-difluorobenzyl)-N-hydroxy-1H-pyrrolo[2,3-c]pyridine-5-carboxamide], in experiment [1] (setting [3]), the IC50 came out at 472 nM. In addition, the EC50 in experiment [2] (setting [4]) was found to be 73 nM.

On to `O=C(NO)c1cc2c(CN3CCOCC3)cn(Cc3ccc(F)cc3F)c2cn1` [Example 2, 1-(2,4-difluorobenzyl)-N-hydroxy-3-(morpholin-4-ylmethyl)-1H-pyrrolo[2,3-c]pyridine-5-carboxamide], for which the IC50 in experiment [1] (setting [3]) turned out to be 52.3 nM. The EC50 in experiment [2] (setting [4]) turned out to be 68 nM.

On to `CC(NCc1cn(Cc2ccc(F)cc2F)c2cnc(C(=O)NO)cc12)c1ccccc1` (centres unmarked) [Example 71, 1-(2,4-Difluorobenzyl)-N-hydroxy-3-{[(1-phenylethyl)amino]methyl}-1H-pyrrolo[2,3-c]pyridine-5-carboxamide], for which the IC50 in experiment [1] (setting [3]) is 409 nM. Further, the EC50 in experiment [2] (setting [4]) stood at 44 nM.

For `CN(C)CCCNCc1cn(Cc2ccc(F)cc2F)c2cnc(C(=O)NO)cc12` [Example 4], the IC50 in experiment [1] (setting [3]) stood at 343 nM. In addition, the EC50 in experiment [2] (setting [4]) came out at 85 nM.

In experiment [1] (IC50, strand transfer), `CN1CCN(Cc2cn(Cc3ccc(F)cc3)c3cnc(C(=O)N(C)O)cc23)CC1` [Example 14, 1-(4-Fluorobenzyl)-AN-hydroxy-N-methyl-3-[(4-methylpiperazin-1-yl)methyl]-1H-pyrrolo[2,3-c]pyridine-5-carboxamide] registered an IC50 of 540 nM. For the same compound, the EC50 in experiment [2] (setting [4]) amounted to 140 nM.
